Series [1] addresses T1, amino acid transporter (LAT1) (Homo sapiens, UniProt Q01650).
T1 construct: endogenous in cells; host or cells: MIA PaCa-2 (human pancreatic cancer cells)
As to the kind of experiment: ^211At-AAMT intracellular uptake in MIA PaCa-2 cells. It counts as cell-based. The conditions noted are these: 30 minutes; for inhibition of ^211At-AAMT intracellular uptake: excess amount (1 mM) added, ^211At-AAMT synthesized by the method of the present invention. The protocol:
Human pancreatic cancer cells MIA PaCa-2 were seeded in a 24-well culture plate at a concentration of 1×10^5 cells/mL. After 2 days, the medium was removed, the cells were washed with PBS (−), and the medium was replaced with HEPES Buffer (amino acid free). To each well, the ^211At-AAMT synthesized by the method of the present invention or the conventional mercury method was added. In addition, an excess amount (1 mM) of BCH (LAT1 inhibitor) or unlabeled (AMT) was added. After culturing the cells for 30 minutes, the cells were washed with PBS (−), and lysed with 0.1 N NaOH, and the radioactivity of the lysate was measured. The ^211At-AAMT intracellular uptake (radioactivity count/protein amount) was calculated by correcting the radioactivity per protein amount. The results are shown in FIG. 6 (FIG. 6a: the method of the present invention, FIG. 6b: the conventional mercury method). In FIG. 6, CTL is control, BCH is 2-aminobicyclo[2,2,1]heptane-2-carboxylic acid, and AMT is α-methyltyrosine.

In the next series the test system is HEK293 cells. In words: cell viability after addition of ^211At-AAMT. It counts as cell-based. The conditions noted are these: 0.00-5.00 kBq per well, 24 hours, FIG. 7. The method, then: HEK293 cells were seeded in a 24-well culture plate at a concentration of 1×10^5 cells/mL. After 2 days, the medium was removed, the cells were washed with PBS (−), and the medium was replaced with HEPES Buffer (amino acid free). To each well, 0.00-5.00 kBq of the ^211At-AAMT synthesized by the method of the present invention or the conventional mercury method was added. After culturing the cells for 24 hours, the cell viability was examined. […] Industrial Applicability

For series [2] the following is noted: produced by the mercury method; Non-Patent Document 1; cited from earlier work.
A short description of a further series: stability after labeling. It counts as physicochemical. The conditions noted are these: crude product solution with ascorbic acid added. The protocol:
3-(4,4,5,5-Tetramethyl-1,3,2-dioxaboran-2-yl)-α-methyl-L-tyrosine hydrochloride (Bpin-AMT) was dissolved in water to prepare a 1 w/v % aqueous solution. This aqueous solution (0.1 mL) was put in a microtube, and then aqueous [^131I]sodium iodide solution (0.03 mL, 1 MBq, Institute of Isotopes Co., Ltd.) and 0.4 w/v% aqueous N-bromosuccinimide (NBS) solution (0.03 mL) were added thereto, and the mixture was reacted at room temperature for 30 min. Then, to the reaction solution was added 3 w/v% aqueous ascorbic acid solution (0.03 mL) to stop the reaction to give a crude product solution of 3-iodo(^131I)-α-methyl-L-tyrosine (^131I-IAMT).
This crude product solution (1 μL) was analyzed by thin-layer chromatograph method (TLC). The sample was spotted on a thin-layer plate (silica gel G60), and a mixed solvent of acetonitrile/water (2/1) was used as a developing solvent. The thin-layer plate was exposed to an imaging plate for about 15 min, and then analyzed by a bioimage analyzer (Typhoon FLT7000, GE Healthcare, Chicago). 3-Iodo(^131I)-α-methyl-L-tyrosine was detected at Rf 0.72, and the radiochemical yield (RCY) was 86.1%. This compound was stable up to 7 days after labeling.

T1 sequence (Q01650 whole entry): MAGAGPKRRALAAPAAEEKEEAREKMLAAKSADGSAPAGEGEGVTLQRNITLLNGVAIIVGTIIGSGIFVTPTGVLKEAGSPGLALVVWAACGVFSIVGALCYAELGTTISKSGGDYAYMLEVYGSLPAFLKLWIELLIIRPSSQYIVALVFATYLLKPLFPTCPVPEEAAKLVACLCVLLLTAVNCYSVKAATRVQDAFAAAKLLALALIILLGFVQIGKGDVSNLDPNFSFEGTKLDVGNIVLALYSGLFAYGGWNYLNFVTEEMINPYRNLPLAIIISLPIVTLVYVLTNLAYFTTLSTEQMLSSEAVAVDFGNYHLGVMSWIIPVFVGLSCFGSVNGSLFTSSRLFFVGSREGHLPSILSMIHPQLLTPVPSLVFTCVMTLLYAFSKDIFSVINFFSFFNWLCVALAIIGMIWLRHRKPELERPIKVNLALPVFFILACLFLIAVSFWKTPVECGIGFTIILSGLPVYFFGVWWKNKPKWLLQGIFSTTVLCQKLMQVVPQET
T1 sequence (P08195 102-630 partner): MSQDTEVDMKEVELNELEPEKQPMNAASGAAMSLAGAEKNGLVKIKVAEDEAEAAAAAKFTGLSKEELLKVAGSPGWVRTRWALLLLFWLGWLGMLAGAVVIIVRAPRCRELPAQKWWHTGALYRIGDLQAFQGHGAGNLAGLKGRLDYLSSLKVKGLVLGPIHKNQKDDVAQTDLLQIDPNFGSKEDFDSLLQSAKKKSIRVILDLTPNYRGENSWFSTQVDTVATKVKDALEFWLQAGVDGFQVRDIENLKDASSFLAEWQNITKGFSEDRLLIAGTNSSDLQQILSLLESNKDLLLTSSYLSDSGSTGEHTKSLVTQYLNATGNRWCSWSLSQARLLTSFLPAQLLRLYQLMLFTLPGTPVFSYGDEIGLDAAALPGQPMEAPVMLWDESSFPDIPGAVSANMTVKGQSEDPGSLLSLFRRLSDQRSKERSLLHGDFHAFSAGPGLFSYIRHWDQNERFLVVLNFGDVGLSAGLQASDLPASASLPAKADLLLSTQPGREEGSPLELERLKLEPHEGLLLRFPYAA

Turning to `C[C@](N)(Cc1ccc(O)c([211At])c1)C(=O)O` [^211At-AAMT, 3-astato (^211At)-α-methyl-L-tyrosine], the “^211At-AAMT intracellular uptake and its inhibition by BCH and AMT, compared with the method of the present invention” value in series [1] (synthesized by the conventional mercury method, FIG. 6b) was “consistent”. The “^211At-AAMT intracellular uptake (radioactivity count/protein amount)” value in series [1] (synthesized by the method of the present invention, control (CTL), FIG. 6a) is “strongly taken up”. Moreover, in the series with HEK293 cells (synthesized by the conventional mercury method), the “cell viability, compared with the method of the present invention” value was “consistent”. The cell viability entry in the series on HEK293 cells (synthesized by the method of the present invention) was “decreased in a dose-dependent manner”. In series [2], the “stability of the produced ^211At-AAMT” value is “unstable”.
As to `C[C@](N)(Cc1ccc(O)c([131I])c1)C(=O)O` [3-Iodo(^131I)-α-methyl-L-tyrosine, 3-iodo(^131I)-α-methyl-L-tyrosine], the “time stable after labeling” value in the series “stability after labeling” is recorded as “up to 7 days”.
As to `C[C@](N)(Cc1ccc(O)cc1)C(=O)O` [AMT, α-methyltyrosine, reference compound], in series [1], the “inhibition of ^211At-AAMT intracellular uptake” value is reported as “significantly inhibited”.
`NC1(C(=O)O)CC2CCC1C2` (centres unmarked) [BCH, 2-aminobicyclo[2,2,1]heptane-2-carboxylic acid, reference compound]: the “inhibition of ^211At-AAMT intracellular uptake” value in series [1] is listed as “significantly inhibited”.

(Values after patent US20240124496A1, “BORONIC ACID COMPOUND AND METHOD FOR PRODUCING SAME” (OSAKA UNIVERSITY, priority 2021, published 2024).)
